The text below walks through data of US12528801B2 (Givaudan SA, priority 2019, dated 2026).

The test system of assay [1] is trained group of panelists. Briefly: Sensory studies in aqueous solution (trained panel, mouth swill). The settings on record: 10 ppm in aqueous solution; for Time of max. cooling / Max. cooling: 20 mL swilled in the mouth for 60 seconds; for Max. cooling / Cooling after 1 h: panel-averaged cooling score, scale 0 to 10; for Cooling after 1 h: 1 h after swilling. In kind it is in vivo, human. On the procedure: The compounds as listed below in Table 2 were dissolved at a concentration of 1 wt-% in propylene glycol. These solutions were then dispensed in appropriate quantities into deionized water containing 0.5 wt-% Poloxamer 407 (which is a hydrophilic non-ionic surfactant, e.g., commercially available from SigmaAldrich) and 0.25 wt-% Cremaphor® RH40 (obtained from BASF) as solubilizer, to obtain the desired final concentration of 10 ppm (parts per million) of the respective compound.
A trained group of panelists evaluated the aqueous solutions containing test compound by swilling 20 mL of the solution in the mouth for 60 seconds, followed by spitting, without rinsing the mouth afterwards for the duration of the evaluation. Panelists evaluated and recorded the cooling performance as well as other sensorial and organoleptic attributes at different timepoints over a period of two hours. Cooling performance was rated on a scale from 0 to 10 with 0 being no effect and 10 being freezing. Scores were averaged for all panelists and the cooling intensity qualified as “none” (score of 0), “low” (score above 0, up to 1), “medium” (score above 1, up to 4) “strong” (score above 4, up to 8) and “freezing” (score above 8), which are provided in Table 2.

Assay [2] deals with trained group of panelists. Briefly: Sensory studies in model dentifrice (trained panel, tooth brushing). In kind it is in vivo, human. The settings on record: 40 ppm in model unflavored dentifrice; for Cooling after 1 h: 1 h after brushing; for Cooling after 1 h / Max. cooling: panel-averaged score 0 to 10; for Time of max. cooling / Max. cooling: brushing with 1 g for 60 seconds; for Max. cooling: stock in propylene glycol (A) or benzyl alcohol (B). The protocol: The compounds listed in Table 3 were dissolved at a concentration of 1 wt-% in propylene glycol^A or benzyl alcohol^B (respective solvents indicated in Table 3). These solutions were then dispersed in appropriate quantities to obtain the desired final concentration of 40 ppm (parts per million) of the test compound into a model, unflavored dentifrice, the formula of which is given below (ingredients obtained from the suppliers respectively indicated in parenthesis).
A trained group of panelists evaluated the dentifrice containing a compound of formula (I), by brushing their teeth with 1 g of the dentifrice using a toothbrush for 60 seconds, followed by spitting, without rinsing the mouth afterwards for the duration of the evaluation. Panelists evaluated and recorded the cooling performance as well as other sensorial and organoleptic attributes at different timepoints over a period of two hours. Cooling performance was rated on a scale from 0 to 10 with 0 being no effect and 10 being freezing. Scores were averaged for all panelists and the cooling intensity qualified as “none” (score of 0), “low” (score above 0, up to 1), “medium” (score above 1, up to 4) “strong” (score above 4, up to 8) and “freezing” (score above 8), which are summarized below in Table 3.

The target in the next assay is T1, hTRPM8 (Homo sapiens, UniProt Q7Z2W7).
T1 construct: expressed in transfected cells
T1 sequence (Q7Z2W7 whole entry): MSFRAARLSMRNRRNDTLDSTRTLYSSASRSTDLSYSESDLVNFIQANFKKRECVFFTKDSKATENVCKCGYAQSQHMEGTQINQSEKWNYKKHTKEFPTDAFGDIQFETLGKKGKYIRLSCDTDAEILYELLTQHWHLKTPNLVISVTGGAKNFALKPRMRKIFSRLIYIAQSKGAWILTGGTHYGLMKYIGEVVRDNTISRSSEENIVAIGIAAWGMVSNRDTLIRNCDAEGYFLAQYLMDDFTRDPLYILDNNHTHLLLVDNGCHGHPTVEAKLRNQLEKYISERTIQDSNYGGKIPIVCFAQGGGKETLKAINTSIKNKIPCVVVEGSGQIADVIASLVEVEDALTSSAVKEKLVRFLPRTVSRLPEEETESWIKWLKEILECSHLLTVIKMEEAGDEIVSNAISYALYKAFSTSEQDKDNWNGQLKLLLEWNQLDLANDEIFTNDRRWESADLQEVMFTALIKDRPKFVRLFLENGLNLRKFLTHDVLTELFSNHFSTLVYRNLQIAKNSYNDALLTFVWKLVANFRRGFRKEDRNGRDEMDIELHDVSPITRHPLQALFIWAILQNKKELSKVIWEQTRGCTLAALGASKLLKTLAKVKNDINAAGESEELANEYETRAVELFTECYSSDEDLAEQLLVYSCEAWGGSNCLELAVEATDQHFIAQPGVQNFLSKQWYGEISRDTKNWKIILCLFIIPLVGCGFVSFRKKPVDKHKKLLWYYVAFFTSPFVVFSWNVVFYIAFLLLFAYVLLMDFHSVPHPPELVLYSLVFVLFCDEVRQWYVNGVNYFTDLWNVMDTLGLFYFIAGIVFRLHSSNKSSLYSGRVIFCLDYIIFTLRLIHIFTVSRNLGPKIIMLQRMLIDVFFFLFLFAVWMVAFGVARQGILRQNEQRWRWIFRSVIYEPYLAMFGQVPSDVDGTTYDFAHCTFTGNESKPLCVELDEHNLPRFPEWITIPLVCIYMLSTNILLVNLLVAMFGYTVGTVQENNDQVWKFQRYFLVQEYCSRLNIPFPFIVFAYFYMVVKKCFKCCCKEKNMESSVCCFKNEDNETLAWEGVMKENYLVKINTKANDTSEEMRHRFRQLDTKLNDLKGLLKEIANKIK
Briefly: Assay on TRPM8 modulators: calcium imaging (Fluo-4, Flexstation) in HEK293 cell line stably expressing hTRPM8. Type of assay: cell-based. The settings on record: HEK293 cells stably expressing hTRPM8; calcium influx, Fluo-4, Flexstation 3; sigmoidal dose-response fit. Summed up:
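HEK293 cells stably expressing hTRPM8 were loaded with Fluo-4 AM plus probenecid and kept in HEPES buffer, pH 7.4. Calcium influx to serially diluted compounds was recorded for 120 s. Maximal activation was referenced to solvent control and 31.6 μM menthol, with EC values from sigmoidal dose-response fits.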

As usually defined, the EC50 is the concentration needed to bring the measured effect to its halfway point. Take `CS[C@H](C)C(=O)N1CCCC[C@@H]1c1ncc(-c2ccc(C)cc2)[nH]1` [Compound 11, (R)-2-(methylthio)-1-((R)-2-(5-(p-tolyl)-1H-imidazol-2-yl)piperidin-1-yl)propan-1-one]: in assay [1], the “Time of max. cooling” value came to 10 min, the Max. cooling result was “S (S = Strong)” and the “Cooling after 1 h” value is on record as “M (M = medium)”. Besides, in assay [2], the “Cooling after 1 h” value is reported as “M (M = medium)”, the “Time of max. cooling” value was 20 min and the Max. cooling result is “S (S = Strong)”. Further, the half-maximal effective concentration (EC50) at hTRPM8 is less than 50 nM.
Regarding `CCSC(C)C(=O)N1CCCCC1c1ncc(-c2ccc(C)cc2)[nH]1` (stereo not shown) [Compound 95, 2-(ethylthio)-1-(2-(5-(p-toly)-1H-imidazol-2-yl)piperidin-1-yl)propan-1-one], in assay [1], the “Time of max. cooling” value is reported as 10 min, the Max. cooling entry was “M (M = medium)” and the “Cooling after 1 h” value is reported as “M (M = medium)”. In addition, in assay [2], the “Cooling after 1 h” value is recorded as “L (L = Low)”, the “Time of max. cooling” value came out at 5 min and the Max. cooling result is reported as “M (M = medium)”. Moreover, the EC50 on hTRPM8 was less than 50 nM.
Consider `CSC(C)C(=O)N1CCCCC1c1ncc(-c2ccc(C(F)(F)F)cc2)[nH]1` (stereo not shown) [Compound 124, 2-(methylthio)-1-(2-(5-(4-(trifluoromethyl)phenyl)-1H-imidazol-2-yl)piperidin-1-yl)propan-1-one], for which, in assay [1], the “Time of max. cooling” value was found to be 20 min, the Max. cooling result was “M (M = medium)” and the “Cooling after 1 h” value is reported as “M (M = medium)”. Besides, in assay [2], the “Cooling after 1 h” value is “M (M = medium)”, the “Time of max. cooling” value is listed as 30 min and the Max. cooling result is reported as “M (M = medium)”. In addition, at hTRPM8, the EC50 is less than 50 nM.
Consider `CSC(C)C(=O)N1CCCCC1c1ncc(-c2ccc(C)s2)[nH]1` (stereo not shown) [Compound 127, 2-(methylthio)-1-(2-(5-(5-methylthiophen-2-yl)-1H-imidazol-2-yl)piperidin-1-yl)propan-1-one], for which, in assay [1], the “Time of max. cooling” value is reported as 10 min, the Max. cooling entry is listed as “S (S = Strong)” and the “Cooling after 1 h” value is listed as “M (M = medium)”. On hTRPM8, the EC50 was less than 50 nM.
With `CSC(C)C(=O)N1CCCCC1c1ncc(-c2ccc(C)cc2)[nH]1` (stereo not shown) [Compound 130, 2-(methylthio)-1-(2-(5-(p-toly)-1H-imidazol-2-yl)piperidin-1-yl)propan-1-one], in assay [1], the “Time of max. cooling” value was found to be 20 min, the Max. cooling entry is given as “S (S = Strong)” and the “Cooling after 1 h” value is on record as “M (M = medium)”. In assay [2], the “Cooling after 1 h” value is “M (M = medium)”, the “Time of max. cooling” value was 20 min and the Max. cooling entry is “S (S = Strong)”. In addition, at hTRPM8, the concentration giving a half-maximal response (EC50) is less than 50 nM.
`CSC(C)C(=O)N1CCCCC1c1ncc(-c2ccccc2)[nH]1` (stereo not shown) [Compound 135, 2-(methylthio)-1-(2-(5-phenyl-1H-imidazol-2-yl)piperidin-1-yl)propan-1-one]: in assay [1], the “Time of max. cooling” value was 10 min, the Max. cooling entry is recorded as “M (M = medium)” and the “Cooling after 1 h” value is listed as “L (L = Low)”. For the same molecule, at hTRPM8, the EC50 was less than 50 nM.
For the molecule `C=CC(C)C(=O)N1CCCCC1c1ncc(-c2ccc(C)cc2)[nH]1` (stereo not shown) [Compound 163, 2-methyl-1-(2-(5-(p-tolyl)-1H-imidazol-2-yl)piperidin-1-yl)but-3-en-1-one], in assay [1], the “Time of max. cooling” value worked out at 10 min, the Max. cooling entry is reported as “S (S = Strong)” and the “Cooling after 1 h” value is on record as “M (M = medium)”. In assay [2], the “Cooling after 1 h” value is “M (M = medium)”, the “Time of max. cooling” value turned out to be 5 min and the Max. cooling entry is on record as “M (M = medium)”. Also, the EC50 at hTRPM8 was less than 50 nM.
`CCC(C)C(=O)N1CCCCC1c1ncc(-c2ccc(C)cc2)[nH]1` (stereo not shown) [Compound 164, 2-methyl-1-(2-(5-(p-tolyl)-1H-imidazol-2-yl)piperidin-1-yl)butan-1-one]: in assay [1], the “Time of max. cooling” value was determined as 10 min, the Max. cooling result was “S (S = Strong)” and the “Cooling after 1 h” value is on record as “M (M = medium)”. Further, in assay [2], the “Cooling after 1 h” value was “M (M = medium)”, the “Time of max. cooling” value is listed as 10 min and the Max. cooling entry was “S (S = Strong)”. Also, at hTRPM8, the EC50 is less than 50 nM.
For the molecule `CC[C@H](C)C(=O)N1CCCCC1c1ncc(-c2ccc(C)cc2)[nH]1` (stereo partly drawn) [Compound 166, (2S)-2-methyl-1-(2-(5-(p-tolyl)-1H-imidazol-2-yl)piperidin-1-yl)butan-1-one], in assay [1], the “Time of max. cooling” value was found to be 20 min, the Max. cooling result was “S (S = Strong)” and the “Cooling after 1 h” value was “M (M = medium)”. For the same molecule, in assay [2], the “Cooling after 1 h” value was “M (M = medium)”, the “Time of max. cooling” value is 10 min and the Max. cooling result is given as “S (S = Strong)”. In addition, the 50% effective concentration (EC50) at hTRPM8 was less than 50 nM.
As for `CSC(C)C(=O)N1CCCCC1c1ncc(-c2ccc(CC#N)cc2)[nH]1` (stereo not shown) [Compound 196, 2-(4-(2-(1-(2-(methylthio)propanoyl)piperidin-2-yl)-1H-imidazol-5-yl)phenyl)acetonitrile], the EC50 at hTRPM8 is less than 50 nM.
The same measure, in the same setting: in the case of `CCC(C)C(=O)N1CCCCC1c1ncc(-c2ccc(CC#N)cc2)[nH]1` (stereo not shown) [Compound 197, 2-(4-(2-(1-(2-methylbutanoyl)piperidin-2-yl)-1H-imidazol-5-yl)phenyl)acetonitrile] it was less than 50 nM.
Turning to `CCC(C)C(=O)N1CCCCC1c1ncc(-c2ccc(C#N)cc2)[nH]1` (stereo not shown) [Compound 198], the EC50 at hTRPM8 was less than 50 nM.
In the case of `Cc1ccc(-c2cnc(C3CCCCN3C(=O)C(C)C(C)C)[nH]2)cc1` (stereo not shown) [Compound 199, 2,3-dimethyl-1-(2-(5-(p-tolyl)-1H-imidazol-2-yl)piperidin-1-yl)butan-1-one], the EC50 at hTRPM8 is less than 50 nM.
On the same count and under the same terms, in the case of `CCC(C)C(=O)N1CCCCC1c1ncc(-c2ccccc2C)[nH]1` (stereo not shown) [Compound 200, 2-methyl-1-(2-(5-(o-tolyl)-1H-imidazol-2-yl)piperidin-1-yl)butan-1-one] it was 50 to 300 nM; in that of `CCC(C)C(=O)N1CCCCC1c1ncc(-c2cccc(C)c2)[nH]1` (stereo not shown) [Compound 201, 2-methyl-1-(2-(5-(m-tolyl)-1H-imidazol-2-yl)piperidin-1-yl)butan-1-one], 50 to 300 nM; in that of `CCC(C)C(=O)N1CCCCC1c1ncc(-c2ccc(CO)cc2)[nH]1` (stereo not shown) [Compound 202, 1-(2-(5-(4-(hydroxymethyl)phenyl)-1H-imidazol-2-yl)piperidin-1-yl)-2-methylbutan-1-one], 50 to 300 nM.
`Cc1ccc(-c2cnc(C3CCCCN3S(=O)(=O)C(C)C)[nH]2)cc1` (stereo not shown) [Compound 203, 1-(isopropylsulfonyl)-2-(5-(p-tolyl)-1H-imidazol-2-yl)piperidine]: the EC50 at hTRPM8 was 300 to 1000 nM.
In the case of `CCC(C)S(=O)(=O)N1CCCCC1c1ncc(-c2ccc(C)cc2)[nH]1` (stereo not shown) [Compound 204, 1-(sec-butylsulfonyl)-2-(5-(p-tolyl)-1H-imidazol-2-yl)piperidine], at hTRPM8, the EC50 was 1000 to 35000 nM.
On the same count and under the same terms, the figure for `CCC(C)C(=O)N1CCCCC1c1ncc(-c2ccc(C)s2)[nH]1` (stereo not shown) [Compound 205, 2-methyl-1-(2-(5-(5-methylthiophen-2-yl)-1H-imidazol-2-yl)piperidin-1-yl)butan-1-one] is less than 50 nM; for `CSC(C)C(=O)N1CCNCC1c1ncc(-c2ccc(C)cc2)[nH]1` (stereo not shown) [Compound 206, 2-(methylthio)-1-(2-(5-(p-toly)-1H-imidazol-2-yl)piperazin-1-yl)propan-1-one] it is less than 50 nM; for `CSC(C)C(=O)N1CCCCC1c1nc(-c2ccc(C)cc2)co1` (stereo not shown) [Compound 207, 2-(methylthio)-1-(2-(4-(p-tolyl)oxazol-2-yl)piperidin-1-yl)propan-1-one] it is less than 50 nM.
Same read-out and setting: the figure for `CCC(C)C(=O)N1CCCCC1c1nc(-c2ccc(C)cc2)co1` (stereo not shown) [Compound 208, 2-methyl-1-(2-(4-(p-tolyl)oxazol-2-yl)piperidin-1-yl)butan-1-one] is less than 50 nM.
